In patent US5262417A, “Antibacterial quinolone compounds” (The Upjohn Company, priority 1991, dated 1993):
Converted amounts (≈) assume the structure as drawn. Like-named read-outs stand apart in the source and are kept apart here. Values belong to the compound of their own block, whether it stands above or below them.

Experiments:
Assay in all cases: Minimum inhibitory concentration (MIC) by agar dilution
Type in all cases: cell-based
Enterobacter cloacae = test system: Enterobacter cloacae
Procedure: (§1) Briefly, MIC values are determined in unsupplemented Mueller Hinton Agar (MHA). The compounds tested are diluted serially into molten MHA at 47° C. The agar is poured into petri dishes and allowed to harden. The various bacteria used for testing are grown overnight on MHA at 35° C. and transferred to Trypticase soy broth (TSB) until a turbidity of 0.5 McFarland standard is obtained. The bacteria are diluted one to 20 in TSB and inoculated on the plates (1 μl using a Steers replicator).
as §1, with “Compounds of this invention can also be tested for in vitro antimicrobial activity using standard testing procedures such as the determination of minimum inhibitory concentration (MIC) by agar dilution as described in "Methods for Dilution Antimicrobial Susceptibility Tests for Bacteria That Grow Aerobically" (MFT) published Jan. […] Briefly,” for “Briefly,”, “(1μl” for “(1 μl”

[1] = test system: Acinetobacter calcoaceticus; conditions: Acinetobacter calcoaceticus
Procedure: as §1, with “The antibacterial activity of the compounds of Formula IC was determined by using standard testing procedures such as the determination of minimum inhibitory concentration (MIC) by agar dilution as described in "Methods for Dilution Antimicrobial Susceptibility Tests for Bacteria That Grow Aerobically" (MFT) published January 1983 by the National Committee for Clinical Laboratory Standards, 771 East Lancaster Avenue, Villanova, Pa. 19084, USA. Briefly,” for “Briefly,”
(§2) Compounds of this invention can also be tested for in vitro antimicrobial activity using standard testing procedures such as the determination of minimum inhibitory concentration (MIC) by agar dilution as described in "Methods for Dilution Antimicrobial Susceptibility Tests for Bacteria That Grow Aerobically" (MFT) published Jan. 1983 by the National Committee for Clinical Laboratory Standards, 771 East Lancaster Avenue, Villanova, Penna. 19084, USA. Briefly, MIC values are determined in unsupplemented Mueller Hinton Agar (MHA). The compounds tested are diluted serially into molten MHA at 47° C. The agar is poured into petri dishes and allowed to harden. The various bacteria used for testing are grown overnight on MHA at 35° C. and transferred to Trypticase soy broth (TSB) until a turbidity of 0.5 McFarland standard is obtained. The bacteria are diluted one to 20 in TSB and inoculated on the plates (1μl using a Steers replicator). […] The MIC test results of selected of Formula B compounds of this invention are found in Tables B2-B9.

Citerobacter freundii = test system: Citerobacter freundii
Procedure: (§3) The antibacterial activity of the compounds of Formula IC was determined by using standard testing procedures such as the determination of minimum inhibitory concentration (MIC) by agar dilution as described in "Methods for Dilution Antimicrobial Susceptibility Tests for Bacteria That Grow Aerobically" (MFT) published January 1983 by the National Committee for Clinical Laboratory Standards, 771 East Lancaster Avenue, Villanova, Pa. 19084, USA. Briefly, MIC values are determined in unsupplemented Mueller Hinton Agar (MHA). The compounds tested are diluted serially into molten MHA at 47° C. The agar is poured into petri dishes and allowed to harden. The various bacteria used for testing are grown overnight on MHA at 35° C. and transferred to Trypticase soy broth (TSB) until a turbidity of 0.5 McFarland standard is obtained. The bacteria are diluted one to 20 in TSB and inoculated on the plates (1 μl using a Steers replicator).
as §2

Escherichia coli = conditions: Escherichia coli
Procedure: as §3, §2

Klebsiella pneumoniae = test system: Klebsiella pneumoniae
Procedure: as §3, §2

Proteus penneri = conditions: Proteus penneri
Procedure: as §3, §2

Pseudomonas aeruginosa = conditions: Pseudomonas aeruginosa
Procedure: as §3, §2

Serratia marcescens = conditions: 20 h
Procedure: as §3, §2

Staphylococcus aureus = conditions: Staphylococcus aureus
Procedure: as §3, §2

[2] = test system: Staphylococcus epidermidis; conditions: 20 h
Procedure: as §3, §2

Streptococcus faecalis = conditions: Enterococcus faecalis
Procedure: as §3, §2

Streptococcus pneumoniae = conditions: Streptococcus pneumoniae
Procedure: as §3, §2

Streptococcus pyogenes = conditions: Streptococcus pyogenes
Procedure: as §3, §2

[3] = 20 h, read-out: MINIMUM INHIBITORY CONCENTRATION
[4] = read-out: MINIMUM INHIBITORY CONCENTRATION

MIC (Enterobacter cloacae; UC9382, 20 h, E. cloacae UC 9382, Table CI, read-out: Minimum Inhibitory Concentration): 1 µg/mL (≈ 2.88 µM)
MIC ([1]; UC12170, 20 h, A. calcoaceticus UC 12170, Table CI, read-out: Minimum Inhibitory Concentration): 4 µg/mL (≈ 11.5 µM)
MIC (Citerobacter freundii; Citrobacter freundii, UC3507, 20 h, C. freundii UC 3507, Table CI, read-out: Minimum Inhibitory Concentration): 0.5 µg/mL (≈ 1.44 µM)
MIC (Escherichia coli; UC6674, 20 h, E. coli UC 6674, Table CI, read-out: Minimum Inhibitory Concentration): 1 µg/mL (≈ 2.88 µM)
MIC (Escherichia coli; UC9451, 20 h, E. coli UC 9451, Table CI, read-out: Minimum Inhibitory Concentration): 0.5 µg/mL (≈ 1.44 µM)
MIC (Escherichia coli; UC9855, 20 h, E. coli UC 9855, Table CI, read-out: Minimum Inhibitory Concentration): 2 µg/mL (≈ 5.76 µM)
MIC (Escherichia coli; UC9952, 20 h, E. coli UC 9952, Table CI, read-out: Minimum Inhibitory Concentration): 0.5 µg/mL (≈ 1.44 µM)
MIC (Klebsiella pneumoniae; UC12081, 20 h, K. pneumoniae UC 12081, Table CI, read-out: Minimum Inhibitory Concentration): 1 µg/mL (≈ 2.88 µM)
MIC (Proteus penneri; UC9679, 20 h, P. penneri UC 9679, Table CI, read-out: Minimum Inhibitory Concentration): 0.5 µg/mL (≈ 1.44 µM)
MIC (Pseudomonas aeruginosa; UC6676, 20 h, Ps. aeruginosa UC 6676, Table CI, read-out: Minimum Inhibitory Concentration): 8 µg/mL (≈ 23 µM)
MIC (Pseudomonas aeruginosa; UC9191, 20 h, Ps. aeruginosa UC 9191, Table CI, read-out: Minimum Inhibitory Concentration): 8 µg/mL (≈ 23 µM)
MIC (Pseudomonas aeruginosa; UC12120, 20 h, Ps. aeruginosa UC 12120, Table CI, read-out: Minimum Inhibitory Concentration): 4 µg/mL (≈ 11.5 µM)
MIC (Serratia marcescens; S. marcescens, UC number not given, Table CI, read-out: Minimum Inhibitory Concentration): 0.06 µg/mL (≈ 0.173 µM)
MIC (Staphylococcus aureus; UC6685, 20 h, S. aureus UC 6685, Table CI, read-out: Minimum Inhibitory Concentration): 4 µg/mL (≈ 11.5 µM)
MIC (Staphylococcus aureus; UC9213, 20 h, S. aureus UC 9213, Table CI, read-out: Minimum Inhibitory Concentration): 8 µg/mL (≈ 23 µM)
MIC (Staphylococcus aureus; UC9218, 20 h, S. aureus UC 9218, Table CI, read-out: Minimum Inhibitory Concentration): 8 µg/mL (≈ 23 µM)
MIC (Staphylococcus aureus; UC9271, 20 h, S. aureus UC 9271, Table CI, read-out: Minimum Inhibitory Concentration): 8 µg/mL (≈ 23 µM)
MIC ([2]; S. epidermidis 30031, Table CI, read-out: Minimum Inhibitory Concentration): 2 µg/mL (≈ 5.76 µM)
MIC (Streptococcus faecalis; UC9217, 20 h, S. faecalis UC 9217, Table CI, read-out: Minimum Inhibitory Concentration): 32 µg/mL (≈ 92.1 µM)
MIC (Streptococcus pneumoniae; UC41, 20 h, S. pneumoniae UC 41, Table CI, read-out: Minimum Inhibitory Concentration): 32 µg/mL (≈ 92.1 µM)
MIC (Streptococcus pyogenes; UC152, 20 h, S. pyogenes UC 152, Table CI, read-out: Minimum Inhibitory Concentration): 16 µg/mL (≈ 46.1 µM)
Compound: C#CCn1cc(C(=O)O)c(=O)c2cc(F)c(N3CCC(N)C3)c(F)c21 (racemic) [D]

Compound: O=C(O)c1cn(C23CC(C2)C3)c2nc(N3CCNCC3)c(F)cc2c1=O [No. 4, 7-(1-piperazinyl)-1-(bicyclo[1.1.1]pent-1-yl)-1,4-dihydro-6-fluoro-4-oxo-1,8-naphthyridine-3-carboxylic acid]
MIC (Enterobacter cloacae; [3]): 0.06 µg/mL (≈ 0.167 µM)
MIC ([1]; 20 h, read-out: MINIMUM INHIBITORY CONCENTRATION, Cult No. 12170, MHA): 0.25 µg/mL (≈ 0.698 µM)
MIC (Citerobacter freundii; [3]): 0.06 µg/mL (≈ 0.167 µM)
MIC (Escherichia coli; 20 h, read-out: MINIMUM INHIBITORY CONCENTRATION, Cult No. 6674, MHA): 0.06 µg/mL (≈ 0.167 µM)
MIC (Escherichia coli; 20 h, read-out: MINIMUM INHIBITORY CONCENTRATION, Cult No. 9451, MHA): 0.06 µg/mL (≈ 0.167 µM)
MIC (Escherichia coli; 20 h, read-out: MINIMUM INHIBITORY CONCENTRATION, Cult No. 9855, MHA): 0.06 µg/mL (≈ 0.167 µM)
MIC (Escherichia coli; 20 h, read-out: MINIMUM INHIBITORY CONCENTRATION, Cult No. 9952, MHA): 0.06 µg/mL (≈ 0.167 µM)
MIC (Klebsiella pneumoniae; [3]): 0.125 µg/mL (≈ 0.349 µM)
MIC (Proteus penneri; 20 h, read-out: MINIMUM INHIBITORY CONCENTRATION, Cult No. 9679, MHA): 0.5 µg/mL (≈ 1.4 µM)
MIC (Pseudomonas aeruginosa; 20 h, read-out: MINIMUM INHIBITORY CONCENTRATION, Cult No. 6676, MHA): 2 µg/mL (≈ 5.58 µM)
MIC (Pseudomonas aeruginosa; 20 h, read-out: MINIMUM INHIBITORY CONCENTRATION, Cult No. 9191, MHA): 1 µg/mL (≈ 2.79 µM)
MIC (Pseudomonas aeruginosa; 20 h, read-out: MINIMUM INHIBITORY CONCENTRATION, Cult No. 12120, MHA): 0.5 µg/mL (≈ 1.4 µM)
MIC (Serratia marcescens; [4]): 0.25 µg/mL (≈ 0.698 µM)
MIC (Staphylococcus aureus; 20 h, read-out: MINIMUM INHIBITORY CONCENTRATION, Cult No. 6685, MHA): 0.25 µg/mL (≈ 0.698 µM)
MIC (Staphylococcus aureus; 20 h, read-out: MINIMUM INHIBITORY CONCENTRATION, Cult No. 9213, MHA): 0.5 µg/mL (≈ 1.4 µM)
MIC (Staphylococcus aureus; 20 h, read-out: MINIMUM INHIBITORY CONCENTRATION, Cult No. 9218, MHA): 0.5 µg/mL (≈ 1.4 µM)
MIC (Staphylococcus aureus; 20 h, read-out: MINIMUM INHIBITORY CONCENTRATION, Cult No. 9271, MHA): 0.5 µg/mL (≈ 1.4 µM)
MIC [2, 4]: 0.25 µg/mL (≈ 0.698 µM)
MIC (Streptococcus faecalis; [3]): 2 µg/mL (≈ 5.58 µM)
MIC (Streptococcus pneumoniae; 20 h, read-out: MINIMUM INHIBITORY CONCENTRATION, Cult No. 41, MHA): 2 µg/mL (≈ 5.58 µM)
MIC (Streptococcus pyogenes; 20 h, read-out: MINIMUM INHIBITORY CONCENTRATION, Cult No. 152, MHA): 2 µg/mL (≈ 5.58 µM)
